Assay [1] deals with P388/ADR leukemia. The experiment in a line: NCI tumour cell line growth inhibition, 48 h.
Assay [2] relates to SN12K1 renal. The assay is described as follows: NCI tumour cell line growth inhibition, 48 h.

“And” between values parts separate entries of the source, which are not always exact repeats. Equal entries are not always repeated.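 Step 1: Grow cells in 96-well plates. Step 2: Expose to compound for 48 hours at 5 concentrations. Step 3: Interpolate endpoints linearly; if unreached, use highest concentration. GI50: concentration for 50% inhibition of growth. The concentration for full growth arrest is given as TGI.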

Regarding `NC(CSC(c1ccccc1)(c1ccccc1)c1ccccc1)C(=O)O` (stereo not given), the TGI in assay [1] was 125 µM; in assay [2], 2.21 µM.
Regarding `CCC/C=C/C=C/C(=O)OC1/C(=C/C(=O)OC)CC2CC(C(C)O)OC(=O)CC(O)CC3CC(OC(C)=O)C(C)(C)C(O)(CC4C/C(=C/C(=O)OC)CC(/C=C/C(C)(C)C1(O)O2)O4)O3` (stereo not given), the TGI in assay [1] was 10.9 µM and 11 µM. Further, in assay [2], the GI50 is over 11 µM and the TGI is over 11 µM.
